Experimental data from US10624917B2, “Compositions and methods useful for treating or preventing liver diseases or disorders, and promoting weight loss” (YALE UNIVERSITY, priority 2014, dated 2020).

Experiments:
[1] = test system: Il1b and other genes in PECs; experiment: Quantitative real-time RT-PCR gene expression in PECs; assay type: cell-based, mouse; settings: for ability to supersede LPS tolerance for TIMP-1, VEGF and GLUT-1 gene expression / expression level of IL6 / expression level of Il1b / expression level of Il4: LPS primed PECs; for expression level of IL6 / expression level of Il1b / expression level of Il4: over 6 and 24 hours; for Il1b mRNA expression: PECs pretreated with LPS for 16 hours (LPS tolerant)
Experimental: (§1) FIGS. 3A-3I illustrate the finding that adenosine supersedes LPS induced tolerance and increases IL-1β production by upregulating transcription of pro-IL-1β via cAMP-PKA pathway. PECs were used in all of the following experiments. FIG. 3A: Primed (pri) with LPS (100 ng/ml) for 16 hours followed by stimulation (stim) with LPS (100 ng/ml), or NECA (10 μM) or CGS21680 (10 μM) in the presence or absence of LPS (100 ng/ml) for 6 hours. FIG. 3B: Treated with forskolin for 6 hours as indicated doses with and without LPS priming FIG. 3C: Treated with or without NECA (10 μM), CGS21680 (10 μM) or db-cAMP (200 μM) for 6 hours. FIG. 3D: LPS primed and treated with NECA or CGS21680 in the presence and absence of SQ22536, H89 and PKi. FIG. 3E: Primed with LPS for 16 hours and treated with ATP for 20 min, followed by CGS 21680 in the presence or absence of the adenylyl cyclase and PKA inhibitors SQ22536 and H-89. FIG. 3F: Primed with LPS and treated with or without NECA (10 μM) or db-cAMP (200 μM) for 6 hours. FIG. 3G: Treated with or without CGS21680 (10 μM) for 3 hours, and transcription was stopped by adding […] actinomycin D, and RNA samples collected at indicated times-points. FIG. 3H: LPS primed PECs obtained from wild type or A2AR-cKO mice were stimulated with NECA (10 μM) for 6 hours. The cells were harvested and RNA isolated after each treatment and the gene expression of Il1b and other genes as indicated quantified by real-time PCR using specific primers. FIG. 3I: Primed with LPS for 16 hours and treated with ATP for 20 min, followed by CGS 21680 in the presence or absence of SQ22536 or H-89 Immunoblot analysis of the proIL-1β caspase-1 in cell lysate was performed by specific […] and anti caspase-1 p10 antibodies (FIGS. 3C, 3E-3F, 3I). Data are expressed as the mean±SD from three independent experiments Immunoblots shown are representative results from at least three independent experiments. *p<0.05 determined by Student's t-test.
FIGS. 9A-9H illustrate changes in expression of cytokines and tissue repair genes in peritoneal macrophages in response to adenosine agonists. LPS naive or LPS primed PECs were stimulated with LPS (100 ng ml^−1), CGS21680 (10 μM) or NECA (10 μM) at different time points as indicated. The cells were harvested and RNA isolated after each treatment, and the gene expression of ProIL-1β (Il1b) (FIG. 9A), IL-6 (Il6) (FIG. 9B), IL-4 (Il4) (FIG. 9C), TNF-α (tnfa) (FIG. 9D), TIMP-1 (Timp1) (FIG. 9E), VEGF (vegf) (FIG. 9F), PGK-1 (Pgk1) (FIG. 9G), GLUT-1 (Slc2a1) (FIG. 9H) quantified by real-time PCR using each specific gene primer set as listed. Data are expressed as the mean±SD from three independent experiments. *p<0.05 determined by Student's t-test.
Total RNA was extracted using TRIZOL reagent (Invitrogen), and cDNA was generated with an oligo (dT) primer and the Superscript II system (Invitrogen, USA) followed by analysis using LightCycler 480 system (Roche). q-PCR was performed for Il1b using commercial primer-probe sets (Applied Biosystems Inc.) with DNA master Mix (Roche). Expression of GAPDH was used to standardize the samples, and the results were expressed as a ratio relative to control; q-PCR was performed for tnfa, 116, Txnip, Nlrp3, Hif1a, Timp1, using LightCycler 480 SYBR Green I master mix (Roche). Results were normalized based on the expression of β-actin.

[2] = test system: active caspase-1 / pro-IL-1β in PECs; experiment: Western blot of caspase-1 and pro-IL-1β in PECs; assay type: cell-based, mouse; settings: for up-regulation of Pro-IL-1β: 6 hours, FIG. 3C
Experimental: FIGS. 2A-2H illustrate the finding that adenosine mediates increase in IL-1β via the A2A receptor and amplifies signal 1 and signal 2 pathways. FIG. 2A: LPS primed PECs were treated with NECA (10 μM) in the presence or absence of […] different adenosine receptor antagonists for A1 (DPCPX, 10 nM), A2A (ZM 241385, 10 μM), A2B (MRS1706, 10 nM), A3 (MRS1523, 5 μM), or their combinations for 1 hour, and pulsed with ATP for 20 min. FIGS. 2A-2B: A2A receptor specific agonist (CGS21680) and antagonist ZM 241385 increase and block IL-1β production respectively. […] FIG. 2D: PEC's from A2A receptor deficient cells have low IL-1β production, which is not increased by NECA and CGS 21680. FIG. 2E: CGS21680 increases induction of Il1b mRNA expression, and this was decreased in A2A receptor deficient cells. FIG. 2F: Loss of the A2A receptor in macrophages results in much lower levels of Il1b protein A expression in response to LPS. FIG. 2G: CGS21680 and […] increases and decreases production of cleaved caspase-1, respectively. FIG. 2H: The production of cleaved caspase-1 is decreased in A2A receptor deficient macrophages. Data are expressed as the mean±SD from at least three independent experiments Immunoblots shown are representative results from at least three independent experiments. p<0.05 determined by Student's t-test.
as §1
Liver tissue lysates or PECs were lysed in RIPA buffer (10 mM phosphate buffer pH 7.4, 150 mM NaCl, 1% NP-40, 0.5% sodium deoxycholate, 0.1% SDS) supplemented with complete protease inhibitor cocktail (Roche) and 2 mM dithiothreitol. Lysates were resolved in 4-12% Tris-glycine gradient gels (Invitrogen) and transferred to nitrocellulose (Invitrogen) by electro-blotting. The following antibodies were used: rabbit anti-caspase-1 p10 (SC-514, Santa Cruz), goat anti-mouse IL-1β (BAF401, R&D Systems), Rabbit antimouse HIF-1α (NB100-449, Novus Biologicals, Littleton, Colo.).

Row | SMILES | ability to supersede LPS tolerance for TIMP-1, VEGF and GLUT-1 gene expression [1] | expression level of IL6 [1] | expression level of Il1b [1] | expression level of Il4 [1] | Il1b mRNA expression [1] | up-regulation of Pro-IL-1β [2] | Il1b transcript stability (rate of loss of Il1b mRNA) ([1]; transcription stopped with actinomycin D) | active caspase-1 ([2]; compound alone) | active (cleaved) caspase-1 ([2]; in response to LPS/ATP)
1 | CCNC(=O)[C@H]1O[C@@H](n2cnc3c(N)ncnc32)[C@H](O)[C@@H]1O [NECA, 5′-(N-ethylcarboxamido) adenosine] | consistent ability | increase | increase | increase | dramatic increase | induced up-regulation |  |  | 
2 | CCNC(=O)[C@H]1O[C@@H](n2cnc3c(N)nc(NCCc4ccc(CCC(=O)O)cc4)nc32)[C@H](O)[C@@H]1O [CGS21680] | consistent ability | increase | increase | increase | dramatic increase | induced up-regulation | did not affect transcript stability | did not result in detectable active caspase-1 | increases
